Test results published in patent publication US20240382600A1, “BIFUNCTIONAL DEGRADERS COMPRISING A TEAD BINDER” (Novartis AG, priority 2021, published 2024).

Assays:
[1] = target: TEAD1-GFP in HEK293A cells (Homo sapiens (Human), UniProt P28347); assay: TEAD1 protein abundance flow cytometry assay in HEK293A; format: cell-based; details: HEK293A TEAD1-GFP-CHYSEL-mCherry sensor cells, 24 h, GFP signal by flow cytometry
Procedure: Degradation of TEAD1 was measured in HEK293A cells (Invitrogen R70507) expressing TEAD1-GFP and mCherry from a stably integrated bicistronic TEAD1-GFP-CHYSEL-mCherry construct. Reduction of the GFP signal measured by flow cytometry served as readout for TEAD1 degradation after degrader treatment.
Stable HEK293A sensor cells were maintained in complete growth medium (DMEM high Glucose+10% FCS+1% L-Glutamine+1% NEAA+1% NaPyr.+4 μg/mL blasticidin) with passaging performed twice per week. On Day 0, stable HEK293A sensor cells were seeded at 5,000 cells/well in a 96-well microtiter plate in 100 μL complete medium. On Day 1, cells were treated in duplicate with 10-point 1:3 dilution series of compound using the HP D300 Digital Dispenser (Tecan). DMSO concentrations were normalized across the plate to 0.1%. On Day 2, after 24 h of incubation at 37° C., treatment media was discarded, cells rinsed with 100 μL/well PBS and then detached using 40 μL trypsin/well for 5 min. Trypsin was neutralized with 100 μL/well PBS+20% FCS).
Flow cytometry was performed on the samples using the CytoFlex S (Beckman Coulter). Cell identification was then performed using forward (FSC) vs. side scatter (SSC) plots. Single cell discrimination was performed using SSC-Width (SSC-W) vs. SSC-Height (SSCH) plots. Median GFP values for 2,500 single cells were used to determine TEAD1 levels. Median GFP values from HEK293A were used as a background signal and thus defining 0% TEAD1 signal. Median GFP values from DMSO treated HEK293A TEAD1-GFP CHYSEL-mCherry were used to define 100%
TEAD1 signal for subsequent DC50 curves (concentration at 50% TAED1 degradation). GFP and RFP were read in the channels called FITC and PE, respectively. Concentration response curves plotting relative reduction of the GFP signal (measured by flow cytometry) versus 10 compound concentrations (starting concentration 10 μM, 3 fold dilution steps) of the compounds allowed generation of DC50 values.

[2] = test system: MKN-45/Ubc-luc cells (unspecific inhibition of luciferase expression or activity); assay: Reporter gene assay specificity control (Ubc-Luc), MKN-45; format: cell-based; details: Homo sapiens; MKN-45/Ubc-luc specificity control, 24 hrs
How it was run: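 MKN-45 cells stably carrying a ubiquitin C promoter–firefly luciferase construct, treated the day after seeding with eleven 2-fold compound dilutions (0.1% DMSO final) for 24 hrs at 37° C. Luminescence read 5 min after Steady Glo addition; cell-free background subtracted, as a control for nonspecific luciferase inhibition.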

[3] = test system: YAP-dependent transcription in SF268-MCAT_Luc_dox-i-shYAPLevy (Clone 13) cells; assay: YAP reporter gene activity assay (MCAT-Luc), SF268; format: cell-based; details: Homo sapiens, SF-268; SF268 MCAT_Luc, 24 hrs
[4] = test system: YAP-dependent transcription in NCI-H2052 Tet-On shYAP_2371 pLenti6 MCAT_Luc cells; assay: YAP reporter gene activity assay (MCAT-Luc), NCI-H2052; format: cell-based; details: Homo sapiens, 24 hrs
[5] = test system: SF268-MCAT_Luc_dox-i-shYAPLevy (Clone 13) cells; assay: Proliferation assay (resazurin/AlamarBlue), SF268; format: cell-based; details: Homo sapiens, SF-268; SF268, 72 hours
[6] = test system: MKN-45/Ubc-luc cells; assay: Proliferation assay (resazurin/AlamarBlue), MKN-45; format: cell-based; details: Homo sapiens; MKN-45, 72 hours
How it was run: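 MKN-45 cells carrying constitutive Ubc-driven luciferase reporter, treated the day after seeding with eleven 2-fold dilutions (0.1% DMSO) for 72 h at 37 °C. Viability by resazurin, referenced to day-0 plate; GI50 from % growth (100 none, 0 stasis, −100 kill) and residual viability at top concentration.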

[7] = test system: NCI-H2052 Tet-On shYAP_2371 pLenti6 MCAT_Luc cells; assay: Proliferation assay (resazurin/AlamarBlue), NCI-H2052; format: cell-based; details: Homo sapiens; NCI-H2052, 72 hours
[8] = target: Avi-humanTEAD4^217-434 / Cy5 labeled humanYAP^60-100 (Homo sapiens (Human), UniProt Q15561); assay: In-vitro biochemical TR-FRET assay (TEAD4/YAP); format: binding; details: 1 h at room temperature
Avi-humanTEAD4^217-434 / Cy5 labeled humanYAP^60-100, sequence (Q15561 217-434): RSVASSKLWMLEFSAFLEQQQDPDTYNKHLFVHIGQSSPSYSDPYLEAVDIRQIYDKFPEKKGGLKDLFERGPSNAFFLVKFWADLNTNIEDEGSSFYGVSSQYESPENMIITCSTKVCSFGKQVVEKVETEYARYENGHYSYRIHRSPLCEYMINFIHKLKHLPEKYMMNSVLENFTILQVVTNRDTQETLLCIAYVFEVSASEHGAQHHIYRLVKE

TEAD1-GFP in HEK293A cells, sequence (P28347 whole entry): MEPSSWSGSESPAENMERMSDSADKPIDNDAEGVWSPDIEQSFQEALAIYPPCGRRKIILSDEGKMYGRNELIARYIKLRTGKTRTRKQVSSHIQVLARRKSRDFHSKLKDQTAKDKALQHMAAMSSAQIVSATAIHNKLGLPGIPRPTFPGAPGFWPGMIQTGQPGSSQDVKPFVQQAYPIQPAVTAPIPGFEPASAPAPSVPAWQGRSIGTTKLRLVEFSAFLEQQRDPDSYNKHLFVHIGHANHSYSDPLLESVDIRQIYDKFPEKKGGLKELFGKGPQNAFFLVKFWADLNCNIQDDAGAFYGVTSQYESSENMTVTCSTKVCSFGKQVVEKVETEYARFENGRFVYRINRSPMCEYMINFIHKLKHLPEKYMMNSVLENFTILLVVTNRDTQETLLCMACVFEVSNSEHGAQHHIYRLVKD

## COc1ccc(C(=O)N2CCN(CC3CCN(C(=O)[C@H]4CC[C@H](NC[C@]5(c6ccccc6)Oc6cc(F)c(Cl)c(-c7c(C(N)=O)ccc(OC)c7F)c6[C@@H]5C)CC4)CC3)CC2)cc1N1CCC(=O)NC1=O (atropisomer, axis not shown) [Example 6, 2-((2S,3S,4S)-5-chloro-2-((((1r,4S)-4-(4-((4-(3-(2,4-dioxotetrahydropyrimidin-1(2H)-yl)-4-methoxybenzoyl)piperazin-1-yl)methyl)piperidine-1-carbonyl)cyclohexyl)amino)methyl)-6-fluoro-3-methyl-2-phenyl-2,3-dihydrobenzofuran-4-yl)-3-fluoro-4-methoxybenzamide]
[1]
  DC50: 2 nM
[2]
  IC50: > 20 µM
[3]
  IC50: 0.5 nM
[4]
  IC50: 16 nM
[5]
  GI50: 39 nM
[6]
  GI50: > 20 µM
[7]
  GI50: 61 nM
[8]
  IC50: 1.5 nM

## COc1ccc(C(=O)N2CCC(CC3CCN(CCNC(=O)[C@H]4CC[C@H](NC[C@]5(c6ccccc6)Oc6cc(F)c(Cl)c(-c7c(C(N)=O)ccc(OC)c7F)c6[C@@H]5C)CC4)CC3)CC2)cc1N1CCC(=O)NC1=O (atropisomer, axis not shown) [Example 7, 2-((2S,3S,4S)-5-chloro-2-((((1r,4S)-4-((2-(4-((1-(3-(2,4-dioxotetrahydropyrimidin-1(2H)-yl)-4-methoxybenzoyl)piperidin-4-yl)methyl)piperidin-1-yl)ethyl)carbamoyl)cyclohexyl)amino)methyl)-6-fluoro-3-methyl-2-phenyl-2,3-dihydrobenzofuran-4-yl)-3-fluoro-4-methoxybenzamide]
[1]
  DC50: 3 nM
[2]
  IC50: > 20 µM
[3]
  IC50: 0.4 nM
[4]
  IC50: 29 nM
[5]
  GI50: 26 nM
[6]
  GI50: > 20 µM
[7]
  GI50: 77 nM
[8]
  IC50: < 1 nM

## COc1ccc(C(=O)N2CCN(CC3CN(C(=O)[C@H]4CC[C@H](NC[C@]5(c6ccccc6)Oc6cc(F)c(Cl)c(-c7c(C(N)=O)ccc(OC)c7F)c6[C@@H]5C)CC4)C3)CC2)cc1N1CCC(=O)NC1=O (atropisomer, axis not shown) [Example 9, 2-((2S,3S,4S)-5-chloro-2-((((1r,4S)-4-(3-((4-(3-(2,4-dioxotetrahydropyrimidin-1(2H)-yl)-4-methoxybenzoyl)piperazin-1-yl)methyl)azetidine-1-carbonyl)cyclohexyl)amino)methyl)-6-fluoro-3-methyl-2-phenyl-2,3-dihydrobenzofuran-4-yl)-3-fluoro-4-methoxybenzamide]
[1]
  DC50: 112 nM
[2]
  IC50: > 2 µM
[3]
  IC50: 3.5 nM
[4]
  IC50: 350 nM
[5]
  GI50: 120 nM
[6]
  GI50: > 2 µM
[7]
  GI50: 1190 nM
[8]
  IC50: 1.2 nM

## COc1ccc(C(=O)N2CCC(C3CCN(C(=O)[C@H]4CC[C@H](NC[C@]5(c6ccccc6)Oc6cc(F)c(Cl)c(-c7c(C(N)=O)ccc(OC)c7F)c6[C@@H]5C)CC4)CC3)CC2)cc1N1CCC(=O)NC1=O (atropisomer, axis not shown) [Example 10, 2-((2S,3S,4S)-5-chloro-2-((((1r,4S)-4-(1′-(3-(2,4-dioxotetrahydropyrimidin-1(2H)-yl)-4-methoxybenzoyl)-[4,4′-bipiperidine]-1-carbonyl)cyclohexyl)amino)methyl)-6-fluoro-3-methyl-2-phenyl-2,3-dihydrobenzofuran-4-yl)-3-fluoro-4-methoxybenzamide]
[1]
  DC50: 1 nM
[2]
  IC50: > 20 µM
[3]
  IC50: 0.43 nM
[4]
  IC50: 10 nM
[5]
  GI50: 30 nM
[6]
  GI50: 12.5 µM
[7]
  GI50: 38 nM
[8]
  IC50: 2.6 nM

## COc1ccc(C(=O)N2CCC(C3CCN(CCNC(=O)[C@H]4CC[C@H](NC[C@]5(c6ccccc6)Oc6cc(F)c(Cl)c(-c7c(C(N)=O)ccc(OC)c7F)c6[C@@H]5C)CC4)CC3)CC2)cc1N1CCC(=O)NC1=O (atropisomer, axis not shown) [Example 11, 2-((2S,3S,4S)-5-chloro-2-((((1r,4S)-4-((2-(1′-(3-(2,4-dioxotetrahydropyrimidin-1(2H)-yl)-4-methoxybenzoyl)-[4,4′-bipiperidin]-1-yl)ethyl)carbamoyl)cyclohexyl)amino)methyl)-6-fluoro-3-methyl-2-phenyl-2,3-dihydrobenzofuran-4-yl)-3-fluoro-4-methoxybenzamide]
[1]
  DC50: 11 nM
[2]
  IC50: > 20 µM
[3]
  IC50: 1.4 nM
[4]
  IC50: 91 nM
[5]
  GI50: 51 nM
[6]
  GI50: > 20 µM
[7]
  GI50: 280 nM
[8]
  IC50: < 1 nM

## COc1ccc(C(N)=O)c(-c2c(Cl)c(F)cc3c2[C@H](C)[C@@](CN[C@H]2CC[C@H](C(=O)N4CCC(CN5CCN(C(=O)COc6ccc(C)c(N7CCC(=O)NC7=O)c6)CC5)CC4)CC2)(c2ccccc2)O3)c1F (atropisomer, axis not shown) [Example 12, 2-((2S,3S,4S)-5-chloro-2-((((1r,4S)-4-(4-((4-(2-(3-(2,4-dioxotetrahydropyrimidin-1(2H)-yl)-4-methylphenoxy)acetyl)piperazin-1-yl)methyl)piperidine-1-carbonyl)cyclohexyl)amino)methyl)-6-fluoro-3-methyl-2-phenyl-2,3-dihydrobenzofuran-4-yl)-3-fluoro-4-methoxybenzamide]
[1]
  DC50: 1 nM
[2]
  IC50: > 2 µM
[3]
  IC50: 0.38 nM
[4]
  IC50: 4 nM
[5]
  GI50: 20 nM
[6]
  GI50: > 2 µM
[7]
  GI50: 15 nM
[8]
  IC50: 1.6 nM

## COc1ccc(C(N)=O)c(-c2c(Cl)c(F)cc3c2[C@H](C)[C@@](CN[C@H]2CC[C@H](C(=O)N4CCC(OC5CCN(C(=O)c6ccc(Cl)c(N7CCC(=O)NC7=O)c6)CC5)CC4)CC2)(c2ccccc2)O3)c1F (atropisomer, axis not shown) [Example 13, 2-((2S,3S,4S)-5-chloro-2-((((1r,4S)-4-(4-((1-(4-chloro-3-(2,4-dioxotetrahydropyrimidin-1(2H)-yl)benzoyl)piperidin-4-yl)oxy)piperidine-1-carbonyl)cyclohexyl)amino)methyl)-6-fluoro-3-methyl-2-phenyl-2,3-dihydrobenzofuran-4-yl)-3-fluoro-4-methoxybenzamide]
[1]
  DC50: 0.5 nM
[2]
  IC50: > 2 µM
[3]
  IC50: 0.49 nM
[4]
  IC50: 4.5 nM
[5]
  GI50: 23 nM
[6]
  GI50: > 2 µM
[7]
  GI50: 13 nM
[8]
  IC50: 1.8 nM

## COc1ccc(C(N)=O)c(-c2c(Cl)c(F)cc3c2[C@H](C)[C@@](CN[C@H]2CC[C@H](C(=O)N4CCC(OC5CCN(C(=O)COc6ccc(N7CCC(=O)NC7=O)c(C)c6)CC5)CC4)CC2)(c2ccccc2)O3)c1F (atropisomer, axis not shown) [Example 14, 2-((2S,3S,4S)-5-chloro-2-((((1r,4S)-4-(4-((1-(2-(4-(2,4-dioxotetrahydropyrimidin-1(2H)-yl)-3-methylphenoxy)acetyl)piperidin-4-yl)oxy)piperidine-1-carbonyl)cyclohexyl)amino)methyl)-6-fluoro-3-methyl-2-phenyl-2,3-dihydrobenzofuran-4-yl)-3-fluoro-4-methoxybenzamide]
[1]
  DC50: 3 nM
[2]
  IC50: > 2 µM
[3]
  IC50: 0.63 nM
[4]
  IC50: 3.1 nM
[5]
  GI50: 35 nM
[6]
  GI50: > 2 µM
[7]
  GI50: 11 nM
[8]
  IC50: 1.4 nM
